Experiment: xn = mol fraction of the nth substance listed

C=Cc1ccccc1 + CCO
viscosity [mPa·s], 101.33 kPa
Conditions	x1 = 0.0997	x1 = 0.1994	x1 = 0.3013	x1 = 0.3987	x1 = 0.5004	x1 = 0.6011	x1 = 0.7001	x1 = 0.7976	x1 = 0.8989
298.15 K	1.01	0.932	0.849	0.798	0.764	0.747	0.737	0.731	0.72
303.15 K	0.93	0.861	0.777	0.735	0.711	0.701	0.693	0.688	0.679
308.15 K	0.848	0.786	0.711	0.681	0.661	0.652	0.645	0.64	0.634

CCCCCCCCO + CCO
viscosity [mPa·s], 101 kPa
Conditions	298.15 K	303.15 K	308.15 K	318.15 K
x2 = 0.05	6.909	–	4.994	3.689
x2 = 0.1	6.475	–	4.73	3.51
x2 = 0.1301	–	5.471	–	–
x2 = 0.15	6.058	–	4.466	3.331
x2 = 0.2	5.658	–	4.204	3.154
x2 = 0.243	–	4.607	–	–
x2 = 0.25	5.273	–	3.945	2.979
x2 = 0.3	4.903	–	3.69	2.805
x2 = 0.3339	–	4.001	–	–
x2 = 0.35	4.546	–	3.441	2.634
x2 = 0.4	4.202	–	3.198	2.466
x2 = 0.45	3.871	–	2.961	2.301
x2 = 0.5	3.552	–	2.733	2.14
x2 = 0.5477	–	2.922	–	–
x2 = 0.55	3.245	–	2.512	1.982
x2 = 0.6	2.951	–	2.3	1.828
x2 = 0.65	2.668	–	2.096	1.678
x2 = 0.6979	–	2.169	–	–
x2 = 0.7	2.398	–	1.901	1.532
x2 = 0.75	2.141	–	1.714	1.391
x2 = 0.8	1.897	–	1.535	1.254
x2 = 0.8094	–	1.689	–	–
x2 = 0.85	1.668	–	1.364	1.121
x2 = 0.8948	–	1.362	–	–
x2 = 0.9	1.453	–	1.199	0.9926
x2 = 0.95	1.255	–	1.04	0.8687
x2 = 0.9602	–	1.121	–	–

CC(=O)c1ccc(Cl)cc1 + CCOC(=O)OCC
303.15 K, 101 kPa
Conditions	viscosity [mPa·s]
x2 = 0.0511	2.657
x2 = 0.1131	2.468
x2 = 0.1611	2.309
x2 = 0.2221	2.126
x2 = 0.2808	1.948
x2 = 0.3435	1.765
x2 = 0.4256	1.557
x2 = 0.5032	1.372
x2 = 0.6089	1.162
x2 = 0.6807	1.045
x2 = 0.7618	0.927
x2 = 0.8127	0.877
x2 = 0.8641	0.825
x2 = 0.9197	0.774
x2 = 0.9678	0.725

BrC(Br)Br + CCOC(C)=O
viscosity [mPa·s]
Conditions	x1 = 0.2695	x1 = 0.2713	x1 = 0.5228	x1 = 0.529	x1 = 0.7671	x1 = 0.7683
298 K, 101.3 kPa	–	0.754	–	1.141	–	1.565
318 K, 101.33 kPa	0.6005	–	0.8779	–	1.179	–

CC(C)(C)N + CCOC(C)=O
303.15 K, 101 kPa
Conditions	viscosity [mPa·s]
x1 = 0.168	0.4142
x1 = 0.2336	0.4185
x1 = 0.3514	0.424
x1 = 0.5046	0.4329
x1 = 0.5951	0.4363
x1 = 0.6618	0.4371
x1 = 0.8008	0.442
x1 = 0.8723	0.4431
